Marks after values point to notes of the source that are not given here.
Experiments:
[1] = tested on: MV4; 11-luc disseminated AML disease; assay: MV4; 11-luc disseminated disease model, tumor response and survival; format: in vivo, mouse
Protocol: Subcutaneous tumor efficacy studies were performed using outbred athymic nu/nu mice approximately 6-8 weeks old (Charles River Laboratories, Hollister, Calif.). The efficacy study in the disseminated disease model was performed using immunodeficient NOD-SCID female mice approximately 7-8 weeks old (Jackson Laboratories, Bar Harbor, Me.). […] Routine animal care and assurance of welfare were as described above.
Human MV4; 11 acute myelogenous leukemia cells were obtained from American Tissue Culture Collection (catalog #CRL-9591, Rockville, Md.) and tested to be free of Mycoplasma sp. and murine viruses in the IMPACT1 PCR assay panel (RADIL, University of Missouri, Columbia, Mo.). For the disseminated disease model, a stable pool of MV4; 11 cells expressing the luciferase gene was received from Fangxian Sun at the Genomics Institute of the Novartis Research Foundation in San Diego, Calif. (MV4; 11-luc). The MV4; 11 cells were grown in Iscove's modified Dulbecco's medium (Mediatech Inc., catalog #15-016-CV) supplemented with 10% fetal bovine serum (JRH Biosciences, catalog #12003-1000M), 4 mM L-glutamine and 5 ng/mL recombinant human […] (GM-CSF) (R&D Systems, catalog #215-GM). MV4; 11-luc were grown in the same media, but with the addition of 2 micrograms/mL of puromycin for selection of luciferase expression. These cells were grown as suspension cultures, maintained at 37° C. in a humidified atmosphere containing 5% carbon dioxide. Cells were cultured for fewer than 10 passages prior to use. Cells were harvested at approximately 2 million cells/mL, and centrifuged at ˜800×g for 5 minutes at 4° C. and then resuspended in a cold HBSS (Mediatech Inc., catalog #21-021-CV) at a concentration of 25 million cells/mL (containing 50% Matrigel™, BD Biosciences, catalog #354234) for implantation subcutaneously (injection volume of 0.2 mL) or at a concentration of 100 million cells/mL for implantation intravenously (i.v.) via the tail vein (injection volume of 0.1 mL). Mice were irradiated with 3 gray for 3 minutes one day prior to the i.v. cell implant.
The compound IIa (free base) and SB-715992 (free base) were formulated in 20% Captisol for a dose volume of 8 mL/kg. Doses were adjusted to each animal's body weight.
For the efficacy evaluation in the disseminated disease model, female NOD-SCID mice received whole-body irradiation at 3 gray the day before tail vein injection of 10 million cells in 0.1 mL HBSS. Forty mice were randomized and enrolled on study 28 days post-implant, with a mean photon count (dorsal view+ventral view) of approximately 5×10^7 photons/second, as determined by bioluminescence imaging. Approximately 10 minutes prior to imaging, mice were injected i.p. with 150 mg/kg luciferin (Xenogen Corporation, Alameda, Calif.), followed by anesthetization with isoflurane. Photon emission was measured using a charge coupled device camera in the IVIS imaging system (Xenogen Corporation). Briefly, a gray-scale image of the mice was captured, followed by an overlay of a bioluminescence map representing the spatial distribution of photons detected from cleaved luciferin in the cancer cells expressing luciferase. Signal intensity was quantified using a customized version of the IGOR Pro version 4.09A Software (WaveMetrics, Inc., Lake Oswego, Oreg.) called Living Image version 2.50.2 (Xenogen). The sum of all detected photon counts from the dorsal+ventral views was determined. Bioluminescence of cancer cells in the animals was measured by imaging on designated days until the first mice developed hind limb paralysis due to disease burden, the main end point for when to humanely euthanize mice. The day of euthanasia for each mouse was recorded and the remaining percentage of mice surviving was plotted over time (Kaplan-Meier survival analysis). P values were calculated using the log-rank test (GraphPad Prism 4.0 software) to assess differences between treated and control groups (p<0.05 was considered significant). […]

SUDHL-4 = assay: Cell cycle profile by FACS (propidium iodide DNA content); format: cell-based; conditions: SUDHL-4, 48 hr treatment
Protocol: Lymphoma cell line cells were treated with the KSP inhibitors of the invention and analyzed by FACs analysis. Approximately 2×10^5 cells were harvested, cell pellets were washed with cold PBS twice and re-suspended in 500 μL cold PBS. Cells were fixed by adding 8 mL cold 80% ethanol while vortexing slowly. After 15 minutes of incubation fixed cells were washed twice with PBS and cell pellets were re-suspended in 1 mL of PI/RNASE staining buffer (BD Pharmingen™ catalog #550825) and incubated for 15 minutes at 37° C. protected from light. Propidium iodide (PI) is a fluorescent vital dye that stains both DNA and RNA. Therefore the RNA must be removed by digestion with ribonuclease (RNase). Stained cells were passed through a cell strainer into a FACS tube to reduce the number of cell aggregates (BD Falcon #352235) prior to FACS analysis. The DNA content of the fixed and stained cells was analyzed by the BD FACSCalibur flow cytometer using the CellQuest software.
Following mitotic arrest, cells have several options including coming out of arrest and dividing normally, undergoing apoptosis directly, or exiting mitosis without cytokinesis (a phenomenon called mitotic slippage). If cells undergo mitotic slippage, they can enter a pseudo-G1 and then either continue to cycle, senesce, or undergo apoptosis. […]

CC(C)(C)[C@H](c1nc(-c2cc(F)ccc2F)cn1Cc1ccccc1)N(CC[C@H](N)CF)C(=O)CO [Compound IIa]
Median Day of Survival ([1]; 0.25 mg/kg, q4d × 3, i.v): 27 days | Δ Tumor bioluminescence, Day 12 ([1]; 0.25 mg/kg, q4d × 3, i.v): 4.3 × 10^8 photons/sec | ΔT/ΔC, Day 12 (%) ([1]; 0.25 mg/kg, q4d × 3, i.v): 46% | Median Day of Survival ([1]; 0.25 mg/kg, q4d × 3, i.v, listed as COMPOUND IIa): 27** day | Median Day of Survival ([1]; 0.5 mg/kg, q4d × 3, i.v): 31 days | Regression, Day 12 (%) ([1]; 0.5 mg/kg, q4d × 3, i.v): 9* % | Δ Tumor bioluminescence, Day 12 ([1]; 0.5 mg/kg, q4d × 3, i.v): −4.0 × 10^6 photons/sec | Median Day of Survival ([1]; 0.5 mg/kg, q4d × 3, i.v, listed as COMPOUND IIa): 31** day | Median Day of Survival ([1]; 1 mg/kg, q4d × 3, i.v.): 30 days | Regression, Day 12 (%) ([1]; 1 mg/kg, q4d × 3, i.v.): 80* % | Median Day of Survival ([1]; 1 mg/kg, q4d × 3, i.v, listed as COMPOUND IIa): 30** day | cell cycle profile (DNA content, FACS) (SUDHL-4): underwent apoptosis after 48 hr treatment

Source: patent publication US8252832B2, “Kinesin inhibitors as cancer therapeutics” (Novartis AG, priority 2007, dated 2012)
